In patent publication US12338456B2, “Method for increasing the specific production rate of eukaryotic cells” (Hoffmann-La Roche Inc., priority 2014, dated 2025):
“Also recorded” adds a separate entry of the source.

How the values were obtained:
[1] = tested on: recombinant CHO-K1 cell line, called clone 1, expressing a humanized monoclonal antibody; test: CHO fed-batch cultivation with para-, ortho- or meta-Tyr supplementation under Phe non-limitation conditions; type: cell-based, Chinese Hamster
Experimental: (§1) For all cell culture experiments a recombinant CHO-K1 cell line, called clone 1, expressing a humanized monoclonal antibody was used. The recombinant CHO-K1 cell line was generated using an L-methionine sulfoximine sensitive CHO-K1 host cell line (Lonza, Cologne, Germany). The cells were cultivated in protein free, chemically defined CD-CHO medium (Life Technologies, Darmstadt, Germany) supplemented with 50 μM L-methionine sulfoximine (Sigma Aldrich, Munich, Germany) during seed train cultivation. Seed train cultivation was performed in shake flasks using a humidified incubator, 7% CO2, and 37° C. setting. The cells were splitted every three to four days for subcultivation and culture expansion. For all experiments, cells with identical age in culture (appr. 21 generations) until start of the experiment were used.
(§2) All supplementation experiments were performed using shake flask cultivation systems, chemically defined CD-CHO medium without the selection pressure L-methionine sulfoximine and two appropriate serial continuous applied feeds (feed 1 and feed 2). Recombinant CHO-K1 cells producing a humanized monoclonal antibody were inoculated with 3×10^5 viable cells/mL and cultured for 14 days. CD-CHO base medium was sterile supplemented before inoculation with 0.1 mM, 0.3 mM or 0.4 mM of either ortho-Tyr, meta-Tyr or para-Tyr. Control cultivation with no supplementation of ortho-Tyr, meta-Tyr or para-Tyr was used as reference. Phenylalanine (Phe) non-limitation conditions were realized by increasing concentration of Phe in feed 2.
(§3) For analysis of viable and total cell densities an automated Cedex HiRes system (Roche Diagnostics, Mannheim, Germany) was used. Discrimination of viable and total cell densities were evaluated using the trypan blue exclusion staining method and analyzing more than 10 pictures per sample and day according to the manufacturer's specifications. Viable cell density (VCD) and cell viability were calculated as described in equation 1 (Equ 1) and equation 2 (Equ 2), respectively. Viable cell density=NTrypan blue negative×(10^5 viable cells/ml) (Equ 1) Cell viability=NTrypan blue negative/(NTrypan blue negative+NTrypan blue positive cells)×100% (Equ 2)
(§4) As indicator for overall biomass generation in the process a cumulative cell time integral (CTI) was calculated as followed (Equ 3). Cell time integral=Σ(0.5×(VCDn−1+VCDn)×(tn−tn−1))×(10^5 viable cells×d/ml) (Equ 3)
(§5) Product titer war either quantified by a Cobas Integra 400 plus system (Roche, Mannheim, Germany) according to the manufacture's protocol or by PorosA HPLC method as described previously (Zeck et al. 2012). The overall specific productivity qP was calculated for the analysis of cell production capacity according to equation 4. qP=(Titern−Titern−1)/(CTIn−CTIn−1)×(pg/(viable cell×d)) (Equ 4) Determination of Peptide Sequence Variants and Identification of Meta- and Ortho-Tyr Sequence Variants with Synthetic Peptides
In a second approach, the role of meta- and ortho-Tyr supplementation under Phe non-limitation conditions in CHO fed-batch cultivations was analyzed. For that, the amount of Phe in feed 2 was increased to prevent Phe limitation (FIG. 6).

[2] = tested on: recombinant CHO-K1 cell line, called clone 1, expressing a humanized monoclonal antibody; test: CHO fed-batch cultivation with para-, ortho- or meta-Tyr supplementation under Phe limitation conditions; type: cell-based, Chinese Hamster
Experimental: as §1, §2, §3, §4
Lactate dehydrogenase (LDH) activity in the cell-free supernatant was analyzed using a Cobas Integra 400 plus system (Roche Diagnostics, Mannheim, Germany).
as §5
In concentration screens, a 50% reduction of the […] reduction capacity of CHO cells was observed when supplemented with 0.5 mM meta-Tyr (Gurer-Orhan et al., (2006)). No data or concentration have been reported for ortho-Tyr supplementation in cell cultures to date. Using a dose-dependent cultivation approach, it was aimed to determine the relevance and tolerable concentrations of meta-Tyr and ortho-Tyr on CHO cell growth performance. For this, a CHO cultivation model described in material and methods was supplemented with either 0.1 mM, 0.3 mM or 0.4 mM para-Tyr, ortho-Tyr or meta-Tyr. We used the standard cultivation process with no supplementation as reference, following so-called “control” or “positive control”. Here, Phe will go into limitation by day 10/11.

CHO cells = conditions: cited from earlier work
[3] = 0.1 mM, 0.3 mM or 0.4 mM supplementation

Row | SMILES | product titer (product yield) [1] | product concentration (overall productivity, product yield) [2] | final LDH activity in the supernatant ([2]; compared to control, meta-Tyr and para-Tyr supplementation) | cell viability ([2]; day 14) | specific productivity qP (cell-specific product formation rate) [1] | increase of qP compared to control ([1]; 0.1 mM supplementation) | CTI versus other cultures [1, 3] | increase of qP compared to control ([1]; 0.3 mM supplementation) | increase of qP compared to control ([1]; 0.4 mM supplementation) | reduction of the MTX reduction capacity of CHO cells (CHO cells; 0.5 mM meta-Tyr) | cell cytotoxicity (CHO cells; meta-Tyr supplementation of CHO cells) | specific productivity qP (cell-specific product formation rate) [2] | increase of qP compared to control ([2]; 0.1 mM supplementation) | cumulative CTI (cell time integral, overall biomass production) [2, 3] | maximal VCD versus other cultures [2, 3] | increase of qP compared to control ([2]; 0.3 mM supplementation) | increase of qP compared to control ([2]; 0.4 mM supplementation) | impact on cell viability ([2]; fed-batch CHO cultivation) | specific productivity qP (cell-specific product formation rate) ([2]; listed as Meta-Tyr)
1 | NC(Cc1ccccc1O)C(=O)O (stereo not drawn) [ortho-Tyr, ortho-tyrosine, reference compound] | does not alter product yield | does not alter product yield | higher final LDH activity in the supernatant | less than 60% | – | – | – | – | – | – | – | – | – | – | – | – | – | – | –
2 | N[C@@H](Cc1cccc(O)c1)C(=O)O [meta-Tyr, meta-tyrosine] | does not alter product yield | does not alter product yield | – | – | overall higher specific productivity qP; also recorded: increases cell-specific product formation rate qP | +3% | dose dependent reduction in CTI | +26% | +28% | 50% | dose-dependent cell cytotoxicity | overall higher specific productivity qP | +5% | decreased cumulative CTI | dose dependent reduced maximal VCD | +26% | +36% | no significant impact | increases cell-specific product formation rate qP
